Measurements taken from publication PMC6199744, “Development of Chemical Proteomics for the Folateome and Analysis of the Kinetoplastid Folateome” (ACS Infectious Diseases, 2018).

System: L. major lysate proteins
Assay: Multitargeted bead mixture chemoproteomics, single concentration competition, proteome-wide
Format: binding
Conditions: for fold change: vehicle control = 1

SMILES: Nc1nc2c(c(=O)[nH]1)N(C=O)C(CNc1ccc(C(=O)N[C@@H](CCC(=O)O)C(=O)O)cc1)CN2 (stereo partly drawn) [LEU, leucovorin]
- fold change vs vehicle control (protein LMJF.28.0490 PROPIONYL-COA C[…] CHAIN, PUTATIVE): 1.09
- fold change (protein LMJF.28.0710 HYPOTHETICAL PROTEIN, CONSERVED (SNARE associated Golgi protein, putative)): 0.76
- fold change vs vehicle control (protein LMJF.28.0930 HYPOTHETICAL PROTEIN, CONSERVED): 0.9
- fold change vs vehicle control (protein LMJF.28.0960 40S RIBOSOMAL PROTEIN S14): 1.06
- fold change vs vehicle control (protein LMJF.28.1530 ATP DEPENDENT DEAD-BOX HELICASE, PUTATIVE): 0.95
- fold change relative to vehicle control (protein LMJF.28.1730, […]-ATP-ASE SUBUNIT 2, PUTATIVE): 1.27
- fold change vs vehicle control (protein LMJF.28.2430 VACUOLAR ATP SYNTHASE SUBUNIT B, PUTATIVE): 1.01
- fold change relative to vehicle control (protein LMJF.28.2770, HEAT-SHOCK PROTEIN HSP70, PUTATIVE): 1.32
- fold change (protein LMJF.28.2910 GLUTAMATE DEHYDROGENASE, PUTATIVE): 1.1
- fold change vs vehicle control (protein LMJF.29.0120 […]-ATPASE SUBUNIT, PUTATIVE): 1.15
- fold change (protein LMJF.29.0620 ATP-BINDING CASSETTE PROTEIN SUBFAMILY A, MEMBER 10, PUTATIVE): 0.8
- fold change vs vehicle control (protein LMJF.29.0760 […] BI[…], PUTATIVE,HEAT SHOCK PROTEIN 90, PUTATIVE): 1.05
- fold change relative to vehicle control (protein LMJF.29.0850, HIGH MOBILITY GROUP PROTEIN HOMOLOG TDP-1, PUTATIVE): 2.2
- fold change vs vehicle control (protein LMJF.29.0940 HY[…], CONSERVED): 1.06
- fold change vs vehicle control (protein LMJF.29.1160 TRYPAREDOXIN): 1.05
- fold change vs vehicle control (protein LMJF.29.1240 HYPOTHETICAL PROTEIN, UNKNOWN FUNCTION): 0.99
- fold change vs vehicle control (protein LMJF.29.1270 100 kDa heat shock protein (Hsp100)): 0.99
- fold change vs vehicle control (protein LMJF.29.1310 CARNITINE/CHOLINE ACETYLTRANSFERASE, PUTATIVE): 0.93
- fold change relative to vehicle control (protein LMJF.29.1760, PAR[…] PROTEIN 1D, PUTATIVE): 1.22
- fold change vs vehicle control (protein LMJF.29.1780 D[…] PROTEIN, PUTATIVE): 1.01
- fold change (protein LMJF.29.2200 GTP-BINDING PROTEIN, PUTATIVE (dynamin-1-like protein)): 0.99
- fold change (protein LMJF.29.2310 ENOYL-COA HYDRATASE/ISOMERASE-LIKE PROTEIN): 0.93
- fold change vs vehicle control (protein LMJF.29.2360 ASPARTYL AMINOPEPTIDASE, PUTATIVE,METALLO-PEPTIDASE, CLAN MH, FAMILY M20): 1.08
- fold change (protein LMJF.29.2860 40S RIBOSOMAL PROTEIN S19-LIKE PROTEIN): 1.01
- fold change (protein LMJF.30.0580 HYPOTHETICAL PROTEIN, CONSERVED (AMP-binding enzyme, putative)): 0.99
- fold change (protein LMJF.30.0850 SURFACE PROTEIN AMASTIN, PUTATIVE): 0.99
- fold change vs vehicle control (protein LMJF.30.1250 PYRIDOXAL KINASE, PUTATIVE): 1.08
- fold change vs vehicle control (protein LMJF.30.2580 RETICULON DOMAIN PROTEIN, 22 KDA POTENTIALLY AGGRAVATING PROTEIN (PAPLE22)): 0.97
- fold change relative to vehicle control (protein LMJF.30.3090, HY[…], CONSERVED (RNA-binding protein 42, putative)): 1.16
- fold change vs vehicle control (protein LMJF.30.3240 GLUTAMYL-TRNA SYNTHETASE, PUTATIVE): 0.9
- fold change (protein LMJF.30.3380 PAS-DOMAIN CONTAINING PHOSPHOGLYCERATE KINASE, PUTATIVE): 0.97
- fold change (protein LMJF.30.3430 HYPOTHETICAL PROTEIN, CONSERVED (protein mkt1, putative)): 0.93
- fold change (protein LMJF.30.3520 S-ADENOSYLMETHIONINE SYNTHETASE): 0.9
- fold change (protein LMJF.30.3570 ZINC FINGER-DOMAIN PROTEIN, PUTATIVE): 0.81
- fold change relative to vehicle control (protein LMJF.31.0080, HY[…], CONSERVED): 1.25
- fold change vs vehicle control (protein LMJF.31.0340 AMINO ACID PERMEASE, PUTATIVE): 1.03
- fold change (protein LMJF.31.1130 N-ACYL-L-AMINO ACID AMIDOHYDROLASE, PUTATIVE): 1
- fold change vs vehicle control (protein LMJF.31.1640 THIOLASE PROTEIN-LIKE PROTEIN): 1.02
- fold change relative to vehicle control (protein LMJF.31.2150, PROSTAGLANDIN F2-ALPHA SYNTHASE/D-ARABINOSE DEHYDROGENASE): 1.25
- fold change vs vehicle control (protein LMJF.31.2250 3,2-TRANS-ENOYL-COA ISOMERASE, MIT[…], PUTATIVE): 0.92
- fold change vs vehicle control (protein LMJF.32.0750 RNA BINDING PROTEIN, PUTATIVE): 1.05
- fold change vs vehicle control (protein LMJF.32.1060 DYNEIN, PUTATIVE): 1.02
- fold change relative to vehicle control (protein LMJF.32.1820, IRON […], PUTATIVE): 1.22
- fold change relative to vehicle control (protein LMJF.32.2320, C-14 STEROL REDUCTASE, PUTATIVE): 1.12
- fold change vs vehicle control (protein LMJF.32.3870 MYOSIN XXI): 0.9
- fold change relative to vehicle control (protein LMJF.33.0240, THIOL-DEPENDENT REDUCTASE 1): 1.13
- fold change (protein LMJF.33.0280 HYPOTHETICAL PROTEIN, CONSERVED): 0.89
- fold change relative to vehicle control (protein LMJF.33.0890, HY[…], CONSERVED): 0.98
- fold change vs vehicle control (protein LMJF.33.1070 HY[…], UNKNOWN FUNCTION): 1.03
- fold change vs vehicle control (protein LMJF.33.1330 CYSTEINE CONJUGATE BETA-LYASE, AMINOTRANSFERASE- LIKE PROTEIN): 0.87
- fold change (protein LMJF.33.1590 HY[…], CONSERVED (3-ketoacyl-CoA reductase, putative)): 1.46
- fold change relative to vehicle control (protein LMJF.33.1860, ATP-BINDING CASSETTE PROTEIN SUBFAMILY D, MEMBER 3, PUTATIVE): 1.04
- fold change relative to vehicle control (protein LMJF.33.2340, SUCCINYL-COA:3-KETOACID-COENZYME A TRANSFERASE, MIT[…], PUTATIVE): 1.09
- fold change relative to vehicle control (protein LMJF.33.2440, HY[…], CONSERVED): 1.07
- fold change relative to vehicle control (protein LMJF.33.2540, CARBOXYPEPTIDASE, PUTATIVE,METALLO-PEPTIDASE, CLAN MA(E), FAMILY M32): 1.95
- fold change (protein LMJF.33.3150 40S RIBOSOMAL PROTEIN S13, PUTATIVE): 0.89
- fold change relative to vehicle control (protein LMJF.34.0140, MALATE DEHYDROGENASE): 1.53
- fold change vs vehicle control (protein LMJF.34.0440 RIBOSOMAL PROTEIN S25): 1.25
- fold change relative to vehicle control (protein LMJF.34.2580, HY[…], CONSERVED (ALBA-domain protein 3)): 1.01
- fold change relative to vehicle control (protein LMJF.34.3250, PUTATIVE PYRUVATE/INDOLE-PYRUVATE CARBOXYLASE, PUTATIVE): 1.08
- fold change (protein LMJF.34.4370 20S PROTEASOME BETA 7 SUBUNIT, (PUTATIVE)): 0.92
- fold change vs vehicle control (protein LMJF.34.4620 HYPOTHETICAL PROTEIN, CONSERVED): 0.95
- fold change (protein LMJF.35.0070 PROHIBITIN, PUTATIVE): 0.93
- fold change vs vehicle control (protein LMJF.35.0360 ENOYL-COA HYDRATASE/ISOMERASE FAMILY PROTEIN, CONSERVED): 1.24
- fold change (protein LMJF.35.0370 ATP-DEPENDENT DEAD-BOX RNA HELICASE, PUTATIVE): 0.97
- fold change (protein LMJF.35.0420 40S RIBOSOMAL PROTEIN S3A, PUTATIVE): 1.03
